Among the data in patent US20240262833A1, “FUSED HETEROCYCLIC DERIVATIVES AS NEGATIVE ALLOSTERIC MODULATORS OF MGLU7 RECEPTOR” (Addex Pharma S.A., priority 2021, published 2024) are IC50 and melting point values, retold here.

Data set [1] concerns the target T1, human metabotropic glutamate 7 receptor (hmGlu7) (Homo sapiens, UniProt Q14831).
T1 construct: expressed in transfected cells
The data set can be described thus: mGlu7 assay on HEK-expressing human mGlu7: fluorescent cell based Ca2+ mobilization assay (FLIPR), inhibition of EC80 L-AP4 response. As to conditions: HEK-293 cells expressing hmGlu7; EC80 L-AP4 stimulation; mean of at least three independent experiments in duplicate; read-out: Ca2+ Flux (mean IC50). The gist of the method:
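HEK293 cells stably expressing hmGlu7 with a calcium-redirecting G protein were Fluo4-AM-loaded and assayed at pH 7.4 in HEPES buffer. Compounds were monitored for 180 s for agonism, then cells were challenged with EC80 L-AP4 for 110 s. IC50 was obtained from four-parameter fits, as the mean of ≥3 experiments run in duplicate.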

T1 sequence (Q14831 35-922 isoform Q14831-2): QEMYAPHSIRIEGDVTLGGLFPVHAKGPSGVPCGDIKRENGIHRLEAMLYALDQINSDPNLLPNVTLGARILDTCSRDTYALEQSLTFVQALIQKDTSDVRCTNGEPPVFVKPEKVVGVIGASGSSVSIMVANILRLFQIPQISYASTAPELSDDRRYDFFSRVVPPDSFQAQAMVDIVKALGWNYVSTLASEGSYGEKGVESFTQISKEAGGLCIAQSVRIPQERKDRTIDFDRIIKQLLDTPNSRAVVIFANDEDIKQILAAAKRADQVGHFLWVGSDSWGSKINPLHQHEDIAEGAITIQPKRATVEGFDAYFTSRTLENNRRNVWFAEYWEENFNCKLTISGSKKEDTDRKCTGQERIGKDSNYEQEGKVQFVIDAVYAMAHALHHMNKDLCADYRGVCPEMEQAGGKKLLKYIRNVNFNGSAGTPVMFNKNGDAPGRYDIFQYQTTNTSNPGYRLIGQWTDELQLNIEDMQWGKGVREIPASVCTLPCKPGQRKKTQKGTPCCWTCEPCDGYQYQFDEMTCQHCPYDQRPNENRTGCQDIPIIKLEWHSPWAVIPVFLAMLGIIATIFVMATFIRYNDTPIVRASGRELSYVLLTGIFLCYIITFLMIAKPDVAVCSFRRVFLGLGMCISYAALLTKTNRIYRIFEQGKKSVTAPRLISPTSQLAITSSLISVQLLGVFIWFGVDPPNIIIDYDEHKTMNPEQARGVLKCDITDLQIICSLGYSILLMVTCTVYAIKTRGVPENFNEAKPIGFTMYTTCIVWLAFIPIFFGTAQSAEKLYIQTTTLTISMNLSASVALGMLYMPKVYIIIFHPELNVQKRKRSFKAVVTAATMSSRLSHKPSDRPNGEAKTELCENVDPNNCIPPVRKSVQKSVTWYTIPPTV

In turn, `Cc1c2cnn(-c3ccccn3)c(=O)c2c(C)n1-c1cccc(-c2ccccc2)c1` [1-76, 6-([1,1′-Biphenyl]-3-yl)-5,7-dimethyl-2-(pyridin-2-yl)-2,6-dihydro-1H-pyrrolo[3,4-d]pyridazin-1-one] gave a melting point of 106 to 109 °C. The IC50 in data set [1] lay in the range of 100 to 1000 nM.
`CCN(CC)c1cccc(-n2c(C)c3cnn(-c4ccccn4)c(=O)c3c2C)c1` [1-100, 6-(3-(Diethylamino)phenyl)-5,7-dimethyl-2-(pyridin-2-yl)-2,6-dihydro-1H-pyrrolo[3,4-d]pyridazin-1-one] had a melting point of less than 85 °C. The IC50 in data set [1] fell in the range of 100 to 1000 nM.
With `COc1cccc(-n2c(C)c3cnn(-c4ccccc4)c(=O)c3c2C)c1` [1-26, 6-(3-Methoxyphenyl)-5,7-dimethyl-2-phenyl-2,6-dihydro-1H-pyrrolo[3,4-d]pyridazin-1-one], the melting point is 213 to 215 °C. Also, the IC50 in data set [1] was less than 100 nM.
The like results for `Cc1c2cnn(-c3ccccc3F)c(=O)c2c(C)n1-c1ccccc1` [1-21, 2-(2-Fluorophenyl)-5,7-dimethyl-6-phenyl-2,6-dihydro-1H-pyrrolo [3,4-d]pyridazin-1-one] were, in that order, 226 °C and 100 to 1000 nM.
Molecule `Cc1c2cnn(-c3ncccn3)c(=O)c2c(C)n1-c1cccc(OC2CC2)c1Cl` [1-215, 6-(2-Chloro-3-cyclopropoxyphenyl)-5,7-dimethyl-2-(pyrimidin-2-yl)-2,6-dihydro-1H-pyrrolo[3,4-d]pyridazin-1-one] came in with a melting point of 228 °C. Also, the IC50 in data set [1] was less than 100 nM.
